The values that follow come from ChEMBL document CHEMBL1641406, “Discovery of a 1,5-dihydrobenzo[b][1,4]diazepine-2,4-dione series of inhibitors of HIV-1 capsid assembly” (Bioorg Med Chem Lett, 2011).

A value given as a limit tells only on which side of the number the result lay.

The test system of data set [1] is Human immunodeficiency virus 1. The data set is described as follows: Antiviral activity against HIV1 assessed as inhibition of capsid assembly. It counts as functional.
The subject of data set [2] is Human immunodeficiency virus 1. The data set is described as follows: Antiviral activity against HIV1 infected in human C8166 cells assessed as inhibition of viral replication after 3 days by luciferase assay. It is filed as functional, organism-based. The following applies: Human immunodeficiency virus 1, C8166, 72 h.
Another data set has as its system Rous sarcoma virus. The data set is described as follows: Antiviral activity against Rous sarcoma virus assessed as inhibition of capsid assembly. It is filed as functional.
Data set [3] relates to Human immunodeficiency virus 1. The data set is described as follows: Antiviral activity against HIV1 assessed as inhibition of capsid assembly at 1.4 uM. It is filed as functional.
Data set [4] concerns Human immunodeficiency virus 1. The data set can be described thus: Antiviral activity against HIV1 assessed as inhibition of capsid assembly at 3.8 uM. It is filed as functional.
The test system of data set [5] is Human immunodeficiency virus 1. The data set is described as follows: Antiviral activity against HIV1 expressing wild type reverse transcriptase infected in human C8166 cells assessed as inhibition of viral replication after 3 days by luciferase assay. It is filed as functional, organism-based. The following applies: Human immunodeficiency virus 1, C8166, 72 h.

The nature of data set [6]: Cytotoxicity against human C8166 cells. It is filed as cell-based.
In data set [7] the test system is Human immunodeficiency virus 1. The data set is described as follows: Antiviral activity against HIV1 expressing reverse transcriptase K103N/Y181C double mutant infected in human C8166 cells assessed as inhibition of viral replication after 3 days by luciferase assay. It is filed as functional, organism-based. The following applies: Human immunodeficiency virus 1, C8166, 72 h.

One may read the IC50 as the midpoint of a concentration-inhibition curve. The term EC50 denotes the concentration that produces a half-maximal response. A word on the inhibition: it is the drop in the measured response relative to a control, in per cent. The term CC50 denotes the concentration giving 50% cytotoxicity. A high value points to lower toxicity to the cells.

`CCCCN/C=C1\C(=O)Nc2ccc(Cl)cc2N(c2ccccc2)C1=O`: the IC50 in data set [1] was 1400 nM; in the data set on Rous sarcoma virus, greater than 100000 nM. Moreover, the EC50 in data set [2] was 17000 nM.

In the case of `O=C1CC(=O)Nc2cc(Cl)ccc2N1`, the IC50 in data set [1] is greater than 46000 nM.

For `COCCN/C=C1\C(=O)Nc2ccc(Cl)cc2NC1=O`, the IC50 in data set [1] is 1400 nM.

As for `O=C1Nc2ccc(Cl)cc2NC(=O)/C1=C/NCCO`, in data set [1], the IC50 was 850 nM.

`O=C1Nc2ccc(Cl)cc2NC(=O)/C1=C/NCc1ccncc1`: in data set [1], the IC50 was 670 nM.

`COCCN/C=C1/C(=O)Nc2cc(Cl)ccc2N(C)C1=O`: the IC50 in data set [1] is 590 nM.

Turning to `CCN1C(=O)/C(=C\NCCOC)C(=O)Nc2cc(Cl)ccc21`, the half-maximal inhibitory concentration (IC50) in data set [1] was determined as 470 nM.

For `COCCN/C=C1/C(=O)Nc2cc(Cl)ccc2N(c2ccc(C)cc2)C1=O`, in data set [1], the IC50 is greater than 9000 nM.

Regarding `COCCN/C=C1\C(=O)N(C)c2cccc(Cl)c2N(c2ccccc2)C1=O`, in data set [1], the IC50 is 930 nM.

Regarding `COCCN/C=C1\C(=O)N(C)c2c(Cl)cccc2N(c2ccccc2)C1=O`, the IC50 in data set [1] amounted to 2600 nM.

On to `COCCN/C=C1\C(=O)N(C)c2cc(Cl)ccc2N(c2ccccc2)C1=O`, for which the IC50 in data set [1] worked out at 1600 nM.

Regarding `COCCN/C=C1\C(=O)N(C)c2ccc(C(F)(F)F)cc2N(c2ccccc2)C1=O`, the IC50 in data set [1] was 890 nM.

With `COCCN/C=C1\C(=O)N(C)c2ccc(C3CC3)cc2N(c2ccccc2)C1=O`, the IC50 in data set [1] amounted to 1400 nM.

Turning to `COCCN/C=C1\C(=O)N(C)c2ccc(C(F)(F)F)cc2N(c2ccc(Cl)cc2)C1=O`, the IC50 in data set [1] came to 4000 nM.

As for `COCCN/C=C1\C(=O)N(C)c2ccc(C(F)(F)F)cc2N(c2cccc(Cl)c2)C1=O`, in data set [1], the IC50 is 7800 nM.

On to `COCCN/C=C1\C(=O)N(C)c2ccccc2N(c2cccs2)C1=O`, for which the IC50 in data set [1] turned out to be 500 nM.

Turning to `CN1c2ccc(Cl)cc2N(c2ccccc2)C(=O)c2c[nH]nc21`, in data set [1], the IC50 amounted to 300 nM. For the same compound, the EC50 in data set [2] is 7800 nM.

`CN1c2ccc(Cl)cc2N(c2ccccc2)C(=O)c2cn(C)nc21`: the half-inhibitory concentration (IC50) in data set [1] was 700 nM. Also, in data set [2], the EC50 is 7000 nM.

In the case of `CCn1cc2c(n1)N(C)c1ccc(Cl)cc1N(c1ccccc1)C2=O`, the IC50 in data set [1] was determined as 2200 nM.

With `COCCn1cc2c(n1)N(C)c1ccc(Cl)cc1N(c1ccccc1)C2=O`, the IC50 in data set [1] is 1500 nM. In data set [2], the EC50 was determined as 16000 nM.

For the compound `CN(C)CCn1cc2c(n1)N(C)c1ccc(Cl)cc1N(c1ccccc1)C2=O`, the IC50 in data set [1] is 6800 nM. The EC50 in data set [2] came out at 16000 nM.

For `CN1c2ccc(Cl)cc2N(c2ccccc2)C(=O)c2cn(Cc3ccc(CN4CCOCC4)cc3)nc21`, the IC50 in data set [1] worked out at 1000 nM. Besides, the EC50 in data set [2] was found to be 900 nM.

As to `CN1c2ccc(Cl)cc2N(c2ccccc2)C(=O)c2cn(Cc3ccc(C(=O)O)cc3)nc21`, the IC50 in data set [1] turned out to be 600 nM. Moreover, the EC50 in data set [2] was 2000 nM.

`CN1c2ccc(Cl)cc2N(c2ccccc2)C(=O)c2cn(Cc3cccc(O)c3)nc21`: the IC50 in data set [1] was determined as 600 nM. For the same compound, the EC50 in data set [2] came to 4700 nM.

On to `CN1c2ccc(Cl)cc2N(c2ccccc2)C(=O)c2[nH]cnc21`, for which the IC50 in data set [1] turned out to be 210 nM. Also, the EC50 in data set [2] was 3800 nM.

For `CN1c2ccc(Cl)cc2N(c2ccccc2)C(=O)c2c1ncn2C`, the IC50 in data set [1] was 300 nM. Moreover, in data set [2], the EC50 stood at 2900 nM.

As to `CCn1cnc2c1C(=O)N(c1ccccc1)c1cc(Cl)ccc1N2C`, the IC50 in data set [1] is 220 nM. Besides, the EC50 in data set [2] amounted to 5200 nM.

On to `COCCn1cnc2c1C(=O)N(c1ccccc1)c1cc(Cl)ccc1N2C`, for which the IC50 in data set [1] is 360 nM. The EC50 in data set [2] was 5800 nM.

For the compound `CN1c2ccc(Cl)cc2N(c2ccccc2)C(=O)c2c1ncn2CCN`, the IC50 in data set [1] came out at 370 nM. Further, the EC50 in data set [2] came to 4800 nM.

On to `CN1c2ccc(Cl)cc2N(c2ccccc2)C(=O)c2c1ncn2Cc1cccc(O)c1`, for which the IC50 in data set [1] turned out to be 560 nM. For the same compound, the EC50 in data set [2] was 7300 nM.

Take `CN1c2ccc(Cl)cc2N(c2ccccc2)C(=O)c2c1ncn2Cc1ccc(C(=O)O)cc1`: the IC50 in data set [1] was 430 nM. For the same compound, the EC50 in data set [2] worked out at 6100 nM.

Take `COCCNCc1ccc(Cn2cnc3c2C(=O)N(c2ccccc2)c2cc(Cl)ccc2N3C)cc1`: the IC50 in data set [1] came out at 170 nM. Further, the EC50 in data set [2] was found to be 900 nM.

On to `C=CCC1C(=O)N(C)c2ccc(C(F)(F)F)cc2N(c2ccccc2)C1=O` (configuration not stated), for which the IC50 in data set [1] came to 16000 nM.

Regarding `CN1C(=O)C(CCc2ccccc2)C(=O)N(c2ccccc2)c2cc(C(F)(F)F)ccc21` (configuration not stated), the inhibition at 1.4 µM in data set [3] came out at 10%.

On to `CN1C(=O)C(Cc2ccccc2)C(=O)N(c2ccccc2)c2cc(C(F)(F)F)ccc21` (configuration not stated), for which the inhibition at 3.8 µM in data set [4] was determined as 40%. In addition, the EC50 in data set [5] is greater than 20000 nM.

In the case of `CN1C(=O)C(c2ccccc2)C(=O)N(c2ccccc2)c2cc(C(F)(F)F)ccc21` (configuration not stated), in data set [1], the 50% inhibitory concentration (IC50) is 1200 nM. Further, the EC50 in data set [5] worked out at 3000 nM; in data set [7], 2700 nM. Also, the CC50 in data set [6] was greater than 20000 nM.
